Data: ChEMBL document CHEMBL1201862, “PubChem BioAssay data set” (2004)
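Method: 48-hour compound exposure of cells in 96-well plates, five concentrations, linear interpolation of endpoints. Abbreviation: GI50, concentration required for 50% inhibition of growth.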 The source made the active and inactive calls. Rule as the data show it: active = GI50 up to about 1.1 µM and inactive = higher.

What was measured:
Experiment in all cases: NCI tumour cell line growth inhibition, 48 h
OVCAR-5 = test system: OVCAR-5
OVCAR-4 = test system: OVCAR-4
COLO 205 = test system: COLO 205
NCI/ADR-RES = test system: NCI/ADR-RES
SF-268 = test system: SF-268
OVCAR-3 = test system: OVCAR-3
RXF 393 = test system: RXF 393
SK-OV-3 = test system: SK-OV-3
UO-31 = test system: UO-31
KM12 = test system: KM12
A498 = test system: A498
HCT-15 = test system: HCT-15
OVCAR-8 = test system: OVCAR-8
MCF7 = test system: MCF7
EKVX = test system: EKVX
SN12C = test system: SN12C
CCRF-CEM = test system: CCRF-CEM
NCI-H460 = test system: NCI-H460
ACHN = test system: ACHN
PC-3 = test system: PC-3

Row | SMILES | GI50 (OVCAR-5) | GI50 (OVCAR-4) | GI50 (COLO 205) | GI50 (NCI/ADR-RES) | GI50 (SF-268) | GI50 (OVCAR-3) | GI50 (RXF 393) | GI50 (SK-OV-3) | GI50 (UO-31) | GI50 (KM12) | GI50 (A498) | GI50 (HCT-15) | GI50 (OVCAR-8) | GI50 (MCF7) | GI50 (EKVX) | GI50 (SN12C) | GI50 (CCRF-CEM) | GI50 (NCI-H460) | GI50 (ACHN) | GI50 (PC-3)
1 | CC(=O)O[C@H]1C[C@](C)(O)[C@@]23CC([C@@H](OC(=O)C(C)(C)O)[C@@H](OC(C)=O)C2(COC(=O)c2ccccc2)[C@H]1OC(C)=O)C(C)(C)O3 (stereo not given in full) | > 100 µM (inactive) | > 100 µM (inactive) | > 100 µM (inactive) | > 100 µM (inactive) | > 100 µM (inactive) | 78.9 µM (inactive) | > 100 µM (inactive) | > 100 µM (inactive) | > 100 µM (inactive) | 78.5 µM (inactive) | > 100 µM (inactive) | > 100 µM | > 100 µM (inactive) | 50.9 µM (inactive) | > 100 µM (inactive) | > 100 µM (inactive) | 41.1 µM (inactive) | > 100 µM (inactive) | > 100 µM (inactive) | 44 µM (inactive)
2 | O=c1onc2n1-c1cc(Cl)ccc1C(=S)N1CSCC21 (stereo not given) | > 100 µM (inactive) | > 100 µM (inactive) | > 100 µM (inactive) | > 100 µM (inactive) | > 100 µM (inactive) | > 100 µM (inactive) | > 100 µM (inactive) | > 100 µM (inactive) | > 100 µM (inactive) | 89.7 µM (inactive) | > 100 µM (inactive) | > 100 µM | > 100 µM (inactive) | > 100 µM (inactive) | > 100 µM (inactive) | > 100 µM (inactive) | 55.8 µM (inactive) | > 100 µM (inactive) | > 100 µM (inactive) | > 100 µM (inactive)
3 | COc1ccc(Nc2nc(N)c(C(=O)c3ccc(Cl)cc3)s2)cc1 | 0.505 µM (active) | 0.121 µM (active) | 0.0261 µM (active) | < 0.01 µM (active) | 0.297 µM (active) | < 0.01 µM (active) | < 0.01 µM (active) | < 0.01 µM (active) | < 0.01 µM (active) | 0.0432 µM (active) | < 0.01 µM (active) | 0.0439 µM | < 0.0126 µM (active) | 0.356 µM (active) | 39.6 µM (inactive) | 0.307 µM (active) | < 0.01 µM (active) | < 0.01 µM (active) | < 0.01 µM (active) | < 0.01 µM (active)
4 | O=C(NCCc1ccc(F)cc1)c1cc(/C=C/c2cc(O)ccc2O)ccc1O | 6.64 µM (inactive) | 2.67 µM (inactive) | 3.14 µM (inactive) | 2.69 µM (inactive) | 3.47 µM (inactive) | 2.56 µM (inactive) | 2.03 µM (inactive) | 13 µM (inactive) | 1.66 µM (inactive) | 6.05 µM (inactive) | 4.06 µM (inactive) | 2.26 µM | 3.29 µM (inactive) | 2.45 µM (inactive) | 2.42 µM (inactive) | 5.51 µM (inactive) | 1.61 µM (inactive) | 9.75 µM (inactive) | 2.01 µM (inactive) | 2.96 µM (inactive)
5 | Nc1nc(N)c(CCCCc2ccccc2)c(N)n1 | > 100 µM (inactive) | > 100 µM (inactive) | > 100 µM (inactive) | > 100 µM (inactive) | > 100 µM (inactive) | > 100 µM (inactive) | > 100 µM (inactive) | > 100 µM (inactive) | > 100 µM (inactive) | > 100 µM (inactive) | > 100 µM (inactive) | > 100 µM | > 100 µM (inactive) | > 100 µM (inactive) | > 42.8 µM (inactive) | > 100 µM (inactive) | > 100 µM (inactive) | > 100 µM (inactive) | > 100 µM (inactive) | > 100 µM (inactive)
6 | CC(=O)Oc1c2ccsc2c(OC(C)=O)c2ccsc12 | 2.47 µM (inactive) | 0.67 µM (active) | 1.76 µM (inactive) | 0.284 µM (active) | 0.906 µM (active) | 0.417 µM (active) | 0.0172 µM (active) | 2.86 µM (inactive) | 1.33 µM (inactive) | 1.67 µM (inactive) | 1.77 µM (inactive) | 0.573 µM | 0.337 µM (active) | 0.667 µM (active) | 1.5 µM (inactive) | 0.714 µM (active) | 0.859 µM (active) | 1.81 µM (inactive) | 0.667 µM (active) | 0.164 µM (active)
